The values that follow are results of earlier work, collected in patent US20240335409A1, “SYSTEMS AND METHODS FOR DELIVERY OF PHENYLALANINE AND LACTATE” (Transdermal Biotechnology, Inc., priority 2022, published 2024).

Molecules are shown by their SMILES.

For `C[C@H](O)C(=O)N[C@@H](Cc1ccccc1)C(=O)O` [Lac-Phe, N-lactoyl-phenylalanine], the water solubility is > 2000 µM. Besides, the “effect on food intake and obesity” value with mice was “effectively reduce food intake and obesity”.
